This is an account of results in US20220009922A1, “NOVEL UREA 6,7-DIHYDRO-4H-PYRAZOLO[4,3-C]PYRIDINES ACTIVE AGAINST THE HEPATITIS B VIRUS (HBV)” (AiCuris GmbH & Co. KG, priority 2018, published 2022).

As a reminder, the EC50 is the concentration that produces a half-maximal response. In general, CC50 refers to the concentration giving 50% cytotoxicity.

In data set [1] the test system is HBV. To be noted: read-out: Cell Activity (EC50).
Data set [2] has as its system HepAD38 cells. In words: Cell viability assay (AlamarBlue) in HepAD38 cells. To be noted: HepAD38 cells in the presence of 0.3 μg/ml tetracycline, six days incubation. (The colour change of resazurin is a common sign of viable cells or microbes.)
Setting [3] is: Hepatitis B virus, HePAD38, 144 h.

Read-outs that look alike come from different tables or passages of the source.

In the case of `CN(C(=O)c1n[nH]c2c1CN(C(=O)Nc1ccc(F)c(Cl)c1)CC2)C1(CO)CC1` [Example 3, N5-(3-chloro-4-fluorophenyl)-N3-[1-(hydroxymethyl)cyclopropyl]-N3-methyl-1H,4H,5H,6H,7H-pyrazolo[4,3-c]pyridine-3,5-dicarboxamide], the concentration for a half-maximal effect (EC50) in data set [1] (setting [3]) was less than 1000 nM. On the same count and under the same terms, the same measure for `COCC1(N(C)C(=O)c2n[nH]c3c2CN(C(=O)Nc2ccc(F)c(C#N)c2)CC3)CC1` [Example 4, N5-(3-cyano-4-fluorophenyl)-N3-[1-(methoxymethyl)cyclopropyl]-N3-methyl-1H,4H,5H,6H,7H-pyrazolo[4,3-c]pyridine-3,5-dicarboxamide]: less than 1000 nM. On the same count and under the same terms, the same measure for `O=C(Nc1ccc(F)c(Cl)c1)N1CCc2n[nH]c(C(=O)N3CCCOCC34CC4)c2C1` [Example 11, N-(3-chloro-4-fluorophenyl)-3-{8-oxa-4-azaspiro[2.6]nonane-4-carbonyl}-2H,4H,5H,6H,7H-pyrazolo[4,3-c]pyridine-5-carboxamide]: less than 1000 nM. On the same count and under the same terms, as for `CC1Cc2n[nH]c(C(=O)N3CC(F)(F)CC34CC4)c2CN1C(=O)Nc1ccc(F)c(Cl)c1` (single isomer, unassigned) [Example 8, N-(3-chloro-4-fluorophenyl)-3-{6,6-difluoro-4-azaspiro[2.4]heptane-4-carbonyl}-6-methyl-2H,4H,5H,6H,7H-pyrazolo[4,3-c]pyridine-5-carboxamide], the figure is less than 1000 nM; as for `COCC1(N(C)C(=O)c2n[nH]c3c2CN(C(=O)Nc2ccc(F)c(Cl)c2)CC3)CC1` [Example 2, N5-(3-chloro-4-fluorophenyl)-N3-[1-(methoxymethyl)cyclopropyl]-N3-methyl-1H,4H,5H,6H,7H-pyrazolo[4,3-c]pyridine-3,5-dicarboxamide], less than 1000 nM.

`CC1Cc2n[nH]c(C(=O)N3CC(F)(F)CC34CC4)c2CN1C(=O)Nc1ccc(F)c(Cl)c1` (single isomer, unassigned) [Example 9, N-(3-chloro-4-fluorophenyl)-3-{6,6-difluoro-4-azaspiro[2.4]heptane-4-carbonyl}-6-methyl-2H,4H,5H,6H,7H-pyrazolo[4,3-c]pyridine-5-carboxamide]: the concentration for a half-maximal effect (EC50) in data set [1] (HepAD38 cells, HBV DNA in supernatant at day 6, qPCR) is less than 1000 nM. In addition, the CC50 in data set [2] was more than 10000 nM. Consider `O=C(Nc1ccc(F)c(Cl)c1)N1CCc2n[nH]c(C(=O)N3CCC(O)CC34CC4)c2C1` (stereo not shown) [Example 12, N-(3-chloro-4-fluorophenyl)-3-{7-hydroxy-4-azaspiro[2.5]octane-4-carbonyl}-2H,4H,5H,6H,7H-pyrazolo[4,3-c]pyridine-5-carboxamide], for which the concentration for a half-maximal effect (EC50) in data set [1] (setting [3]) is less than 1000 nM. The same measure, in the same setting: the same measure for `CN(C(=O)c1[nH]nc2c1CN(C(=O)Nc1ccc(F)c(Cl)c1)CC2)C1(COC(=O)C2(N)CC2)CC1` [Example 10, (1-{-methyl5-[(3-chloro-4-fluorophenyl)carbamoyl]-2H,4H,5H, 6H,7H-pyrazolo[4,3-c]pyridine-3-amido}cyclopropyl)methyl 1-aminocyclopropane-1-carboxylate]: less than 1000 nM. Take `O=C(Nc1ccc(F)c(Cl)c1)N1CCc2n[nH]c(C(=O)N3CC(F)(F)CC34CC4)c2C1` [Example 7, N-(3-chloro-4-fluorophenyl)-3-{6,6-difluoro-4-azaspiro[2.4]heptane-4-carbonyl}-2H,4H,5H,6H,7H-pyrazolo[4,3-c]pyridine-5-carboxamide]: the EC50 in data set [1] (setting [3]) is less than 1000 nM. As for `CN(C(=O)c1n[nH]c2c1CN(C(=O)Nc1ccc(F)c(Cl)c1)CC2)C1(COC(F)F)CC1` [Example 1, N5-(3-chloro-4-fluorophenyl)-N3-{1-[(difluoromethoxy)methyl]cyclopropyl}-N3-methyl-1H,4H,5H,6H,7H-pyrazolo[4,3-c]pyridine-3,5-dicarboxamide], the EC50 in data set [1] (setting [3]) was less than 1000 nM. Same read-out and setting: as for `CCOCC1(N(C)C(=O)c2n[nH]c3c2CN(C(=O)Nc2ccc(F)c(Cl)c2)CC3)CC1` [Example 6, N5-(3-chloro-4-fluorophenyl)-N3-[1-(ethoxymethyl)cyclopropyl]-N3-methyl-1H,4H,5H,6H,7H-pyrazolo[4,3-c]pyridine-3,5-dicarboxamide], the figure is less than 1000 nM. Take `CC(C)OCC1(N(C)C(=O)c2n[nH]c3c2CN(C(=O)Nc2ccc(F)c(Cl)c2)CC3)CC1` [Example 5, N5-(3-chloro-4-fluorophenyl)-N3-methyl-N3-{1-[(propan-2-yloxy)methyl]cyclopropyl}-1H,4H,5H,6H,7H-pyrazolo[4,3-c]pyridine-3,5-dicarboxamide]: the EC50 in data set [1] (setting [3]) was less than 1000 nM.
